According to paper PMC10100467, “The Function of Two Radical‐SAM Enzymes, HcgA and HcgG, in the Biosynthesis of the [Fe]‐Hydrogenase Cofactor” (Angewandte Chemie (International Ed. in English), 2022):

Biological target: T1, HcgA (Methanococcus maripaludis, UniProt Q6M0Z2)
T1 construct: His-tagged, produced in Escherichia coli with helper plasmid pRKISC; [4Fe-4S] radical SAM enzyme, CX5CX2C motif
T1 sequence (Q6M0Z2 1-341): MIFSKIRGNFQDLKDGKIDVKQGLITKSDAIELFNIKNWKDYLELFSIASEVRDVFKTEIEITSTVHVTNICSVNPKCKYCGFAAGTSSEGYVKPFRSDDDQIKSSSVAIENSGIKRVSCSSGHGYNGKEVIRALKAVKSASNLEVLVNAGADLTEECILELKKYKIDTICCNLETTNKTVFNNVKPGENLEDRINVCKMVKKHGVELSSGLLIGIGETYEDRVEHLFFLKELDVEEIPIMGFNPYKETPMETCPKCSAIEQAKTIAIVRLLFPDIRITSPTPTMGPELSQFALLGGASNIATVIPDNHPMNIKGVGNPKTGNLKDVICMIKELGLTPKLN
Assay: radical SAM activity, HPLC-MS of product […]
Format: biochemical
Conditions: 1 mM SAH, without added SAM; 3 kDa filtrate of the delta-hcgA cell extract as substrate

## Nc1ncnc2c1ncn2[C@@H]1O[C@H](CSCC[C@H](N)C(=O)O)[C@@H](O)[C@H]1O [S-adenosyl homocysteine]
  relative activity (%): The HcgA activity was inhibited by a radical SAM enzyme inhibitor, S‐adenosyl homocysteine
